From patent US4711902A, “Medicament formulation” (Bayer Aktiengesellschaft, priority 1983, dated 1987)
Where two headings read alike, the source gives them in different places.

Assays:
[1] = lipid content 20% by weight, room temperature
From the text: Ester mixture A: a glycerol triesters of caprylic acid (70%) and capric acid (30%)
Ester mixture D: 50% soy bean oil and 50% glycerol triesters of caprylic acid (70%) and capric acid (30%)

[2] = lipid content 20%, room temperature
[3] = Ester mixture A (glycerol triesters of caprylic acid 70% and capric acid 30%)
[4] = Ester mixture B (propylene glycol diesters of caprylic acid 75% and capric acid 25%)
[5] = Ester mixture C (75% glycerol triesters, 12.5% diesters, 12.5% monoesters of caprylic/capric acid)
[6] = Ester mixture D (50% soy bean oil and 50% glycerol triesters of caprylic acid 70% and capric acid 30%)

Row | Solubility of the medicament in the emulsion [1, 3] | Solubility of the medicament in the emulsion [1, 4] | Solubility of the medicament in the emulsion [1, 5] | Solubility of the medicament in the emulsion [1, 6] | Solubility of the medicament in the emulsion ([1]; Soy bean oil) | Solubility of nimodipine in soy bean oil emulsion ([2]; benzyl alcohol 0% W/W) | Solubility of nimodipine in soy bean oil emulsion ([2]; benzyl alcohol 2% W/W) | Solubility of nimodipine in soy bean oil emulsion ([2]; benzyl alcohol 4% W/W) | Solubility of nimodipine in soy bean oil emulsion ([2]; benzyl alcohol 5% W/W) | SMILES
1 | 0.16 % (W/W) | 0.26 % (W/W) | 0.50 % (W/W) | 0.08 % (W/W) | 0.04 % (W/W) | 0.04% | 0.08% | 0.16% | 0.18% | COCCOC(=O)C1=C(C)NC(C)=C(C(=O)OC(C)C)C1c1cccc([N+](=O)[O-])c1 (stereo not shown) [Nimodipine]
2 | 0.08 % (W/W) | 0.12 % (W/W) | 0.14 % (W/W) | 0.05 % (W/W) | 0.03 % (W/W) | – | – | – | – | CCOC(=O)C1=C(C)NC(C)=C(C(=O)OC)C1c1cccc([N+](=O)[O-])c1 (stereo not shown) [Nitrendipine]

The remaining lines, values behind:

Row | SMILES | Solubility of the medicament in the emulsion [1, 3] | Solubility of the medicament in the emulsion [1, 4] | Solubility of the medicament in the emulsion [1, 5] | Solubility of the medicament in the emulsion [1, 6] | Solubility of the medicament in the emulsion ([1]; Soy bean oil) | Solubility of nimodipine in soy bean oil emulsion ([2]; benzyl alcohol 0% W/W) | Solubility of nimodipine in soy bean oil emulsion ([2]; benzyl alcohol 2% W/W) | Solubility of nimodipine in soy bean oil emulsion ([2]; benzyl alcohol 4% W/W) | Solubility of nimodipine in soy bean oil emulsion ([2]; benzyl alcohol 5% W/W)
3 | CC(c1ccc(Cl)c(Cl)c1)N1N=C(N)CC1=O (stereo not shown) [Muzolimine] | 0.06 % (W/W) | 0.06 % (W/W) | 0.32 % (W/W) | 0.02 % (W/W) | 0.01 % (W/W) | – | – | – | –
4 | COC(=O)C1=C(C)NC(C)=C(C(=O)OCC(C)C)C1c1ccccc1[N+](=O)[O-] (stereo not shown) [Nisoldipine] | 0.14 % (W/W) | 0.18 % (W/W) | 0.20 % (W/W) | 0.08 % (W/W) | 0.04 % (W/W) | – | – | – | –
5 | CCCOC(=O)Cc1ccc(OCC(=O)N(CC)CC)c(OC)c1 [Propanidide] | – | – | – | – | 2.80 % (W/W) | – | – | – | –
